# Results published in patent US20250313642A1, “METHODS OF TREATING ACUTE AND CHRONIC GRAFT VERSUS HOST DISEASE” (Forte Subsidiary, Inc., priority 2022, published 2025).
# Tests used:
# [1] = tested on: xenograft GvHD mouse model (NCG-hIL-15 mice transplanted with human PBMCs); test: Xenograft acute GvHD mouse model, single vs combination therapy, survival; type: in vivo; conditions: Day 18; treatment D5-D18; ruxolitinib 60 mpk PO twice-daily; Antibody 1 75 mpk IP once-daily; n=10
# Method: A xenograft GvHD mouse model was utilized to study human T and NK cell-mediated aGvHD and the therapeutic effects of anti-CD122 antibody treatment in single or combination therapy approaches. Female NCG-hIL-15 mice were irradiated at a dosage of 100 cGy on Day 1 of the protocol and human peripheral blood mononuclear cells (PBMCs) were transplanted via injection at a dosage of 1×10^7 cells/200 μL/mice via IV administration into the irradiated mice according to the same xenograft GvHD mouse model design as in Example 4.
# Treatment according to 3 different grouping of animals was begun on Day 5 following transplant, as shown in the study design of FIG. 4. Groups of 10 mice were used for each test category. A single treatment group, Group #1, (n=10) received ruxolitinib (at a dosage of 60 mpk) twice-daily by oral administration (PO) beginning on Day 5 and ending on Day 18. Days of treatment were D5, D6, D7, D8, D9, D10, D11, D12, D13, D14, D15, D16, D17, and D18. A combination therapy group. Group #2. (n=10) received ruxolitinib (at a dosage of 60 mpk) twice-daily by oral administration beginning on Day 5 and ending on Day 18. […]
# Day 18 was the end of study day for all treatment groups. Animals from all treatment groups were assessed daily beginning on Day 1 and ending on Day 18 for survival following transplant. […]
# [2] = tested on: allogeneic model of chronic GvHD (BALB/c mice); test: Allogeneic chronic GvHD mouse model (B10.D2 donor into BALB/c host), GvHD score; type: in vivo; conditions: Antibody 3 100 mpk IP Q.O.D., Ruxolitinib 60 mpk PO b.i.d.
# Text: An allogeneic model of chronic GvHD according to the animal model design of Ramos et al (Ramos T L et al. Delayed administration of ixazomib modifies the immune response and prevents chronic graft-versus-host disease. Bone Marrow Transplant. 2021 December;56(12):3049-3058) was investigated. In this model as shown in the study design of FIG. 6. B10.D2 mice serve as donor for bone marrow and splenocytes to be transplanted into irradiated BALB/c host mice. […] In this model of cGvHD, there is a low mortality rate extending past 150 days post-transplant and cGvHD symptoms can typically appear starting at approximately 30 days post-transplant. Study design includes treatment start at Day 30 post-transplant and end of study is marked at Day 60 post-transplant. […] Two test treatment groups included Group 2) Antibody 3 anti-CD122 antibody therapy (100 mpk delivered IP every other day (Q.O.D.), and Group 3) ruxolitinib monotherapy (60 mpk PO b.i.d). One negative control group (Group 1) including vehicle (IP Q.O.D.)+vehicle (PO b.i.d.) was also tested. Phenotypic cGvHD score and survival were assessed starting at Day 30 and ending at Day 60 post-transplant.
# • BALB/c mice were randomized into treatment groups based on Day 1 bodyweight. • Female BALB/c mice were irradiated (5 Gy) and intravenously injected with B10.D2 donor cells on Day 1. • Cell injection volume was about 200 μL of Bone Marrow cells and splenocytes mixture as described below in treatments. Total cell volume injection=200 μL in PBS. • GvHD Scoring and body weight measurement assessed on Day 30, 33, 35, 37, 39, 41, 43, 45, 48, 51, 53, 56, 58, and 60. • Individual scores according to the grading system below of Grade 0, 1, or 2 were measured and documented on each assessed day for each criterion of body weight loss, activity, posture, fur texture, and skin integrity for each subject in each test group. Each criterion was then summed per subject to yield a total GvHD score by subject per assessed day (e.g., add score for bodyweight loss, activity, posture, fur texture, and skin integrity to yield total GvHD score). • Total GvHD scores per animal per day were then averaged per group to yield average GvHD score per test group and the standard error of the mean (SEM) for each group was determined.
structure (smiles),measurement,setting,value
N#CC[C@H](C1CCCC1)n1cc(-c2ncnc3[nH]ccc23)cn1 [ruxolitinib],survival rate at the end of the study,[1],30%
same,Average total GvHD score (mean),[2]; D 30 post-transplant,0.6
same,Average total GvHD score (mean),[2]; D 33 post-transplant,0.6
same,Average total GvHD score (mean),[2]; D 35 post-transplant,0.7
same,Average total GvHD score (mean),[2]; D 39 post-transplant,1.2
same,Average total GvHD score (mean),[2]; D 43 post-transplant,1.1
same,Average total GvHD score (mean),[2]; D 45 post-transplant,1.2
same,Average total GvHD score (mean),[2]; D 48 post-transplant,1.2
same,Average total GvHD score (mean),[2]; D 51 post-transplant,1.2
same,Average total GvHD score (mean),[2]; D 56 post-transplant,1.4
same,Average total GvHD score (mean),[2]; D 60 post-transplant,1.7
